Assay results taken from patent publication US12083109B2, “Neurokinin antagonists and uses thereof” (California Institute of Technology, priority 2017, dated 2024).
Entries after “also recorded” stand apart in the source; their conditions may differ.

Target: T1, hM4DREADD in Tac2+ neurons (Homo sapiens, UniProt P08173, A203G/Y113C)
T1 construct: host or cells: Tac2+ neurons of Tac2-Cre mice (dBNSTa, DMH or CeA), transduced in vivo with AAV2-EF1a-DIO-hM4D-mCherry
T1 sequence (P08173 1-479 Y113C/A203G): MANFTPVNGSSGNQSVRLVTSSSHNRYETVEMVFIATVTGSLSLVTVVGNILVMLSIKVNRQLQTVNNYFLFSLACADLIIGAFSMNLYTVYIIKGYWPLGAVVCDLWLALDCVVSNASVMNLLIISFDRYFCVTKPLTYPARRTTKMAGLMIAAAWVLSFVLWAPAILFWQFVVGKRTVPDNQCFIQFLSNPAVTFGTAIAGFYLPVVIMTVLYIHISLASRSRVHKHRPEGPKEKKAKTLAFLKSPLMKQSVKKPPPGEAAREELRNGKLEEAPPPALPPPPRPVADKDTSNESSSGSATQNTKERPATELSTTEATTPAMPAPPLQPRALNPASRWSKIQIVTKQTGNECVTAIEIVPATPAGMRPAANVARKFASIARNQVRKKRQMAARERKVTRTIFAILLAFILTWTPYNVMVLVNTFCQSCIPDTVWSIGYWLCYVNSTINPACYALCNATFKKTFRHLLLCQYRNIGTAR
Assay: Tone fear test, CNO silencing of Tac2+ neurons (hM4DREADD)
Type: in vivo, mouse
Description: The protocol for tone trace fear conditioning was performed as previously described (Cushman et al., 2014; incorporated by reference in its entirety) using fear conditioning boxes previously described in detail (Haubensak et al., 2010; Kunwar et al., 2015; incorporated by reference in their entirety). Briefly, mice were transported in squads of four on a white cart to a novel behavioral testing room containing 4 sound-attenuating fear-conditioning chambers (Med Associates). This “training context” was comprised of flat grid flooring (wired to a shock generator and scrambler for footshock delivery, Med Associates), houselights, and the presence of an internal fan for background noise. Chambers were sprayed with 70% Simple Green solution on the underlying chamber pan to generate a unique contextual scent and chambers were cleaned with 70% EtOH between squads. Trace fear conditioning consisted of a 3 minute baseline period followed by 3 tone-shock trials consisting of a 20 second tone conditional stimulus (CS; 75 dB, 2800 Hz), a 20 second trace interval and a 2 second footshock unconditional stimulus (US; 0.7 mA). The inter-trial interval (ITI) between trials was 60 seconds. Mice remained in the chambers an additional 60 seconds before being transported back to the vivarium. The following day, mice were transported in fresh cardboard boxes to a novel behavioral testing room consisting of 4 distinct fear-conditioning boxes to test for tone fear. […] Freezing behavior during the baseline period as well as during each tone presentation (“during”) and trace interval (“post”) were assessed as previously described (Zelikowsky et al., 2014; incorporated by reference in its entirety) using automated near-infrared video tracking equipment and computer software (VideoFreeze, Med Associates). Shock reactivity (motion, arbitrary units) was measured during the 2 second shock US as well as the 3 seconds immediately following. […]

C[N+]1([O-])CCN(C2=Nc3cc(Cl)ccc3Nc3ccccc32)CC1 [CNO, clozapine-N-oxide]
acute (during) freezing to conditioned tone (SIS Tac2-Cre mice, hM4DREADD in CeA, CNO 5 mg/kg i.p.): blocked; also recorded: suppressed
persistent (post) freezing to conditioned tone (SIS Tac2-Cre mice, hM4DREADD in dBNSTa, CNO 5 mg/kg i.p.): blocked; also recorded: selectively attenuated
tone fear test freezing in mCherry control virus mice (SIS mice, AAV2-EF1a-DIO-mCherry control virus in dBNSTa (no hM4DREADD), CNO vs vehicle): had no effect; also recorded: did not observe any effects; also recorded: no significant effects
